Key:
[1] = Formation of a precipitate on mixing a surfactant with aqueous polyaluminium chloride/glutaraldehyde solution; type: physicochemical; conditions: mixed with aqueous solution (a) containing polyaluminium chloride and 7% glutaraldehyde
Experimental: (§1) 50 ml of an aqueous solution (a) containing approximately 31.5 weight % polyaluminium chloride (dialuminum chloride pentahydroxide), 7% glutaraldehyde was mixed with 10 g Texapon®NSO (C12-C14 alkyl ether sulfate with 2 mole EO). Before mixing the aluminium content of the aqueous solution (a) was about 9.5 weight %. […] The white precipitate was analyzed with respect to its contents of glutaraldehyde, Texapon®NSO. The content of polyaluminium chloride was analyzed by the content of Al-ions by XRF.
50 ml of an aqueous solution (a) containing 10% polyaluminium chloride and 7% glutaraldehyde was mixed with 50 ml of an aqueous solution (b) containing 10 weight % dodecylbenzenesulphonic acid. Before mixing the aluminium content of the aqueous solution (a) was about 3 weight %.
50 ml of an aqueous solution (a) containing 10% polyaluminium chloride, 7% glutaraldehyde was mixed with 50 ml of an aqueous solution (b) containing 10 weight % N-alkyl(C12-C16)-N-benzyl-N,N-dimethylammonium chloride (Barquat®DM-50).

[2] = Chemical analysis of the precipitate (contents of glutaraldehyde and Texapon NSO; Al by XRF); type: physicochemical; conditions: white precipitate from 50 ml solution (a) (31.5 weight % polyaluminium chloride, 7% glutaraldehyde) mixed with 10 g Texapon NSO
Experimental: as §1

Row | formation of a precipitate upon mixing [1] | quantified values (content in the precipitate) [2] | Compound
1 | white solid immediately was formed | – | CCCCCCCCCCCCc1ccc(S(=O)(=O)O)cc1 [dodecylbenzenesulphonic acid]
2 | – | 3.7% | O=CCCCC=O [glutaraldehyde]
